According to ChEMBL document CHEMBL5620367, “Discovery of new tetrahydroisoquinolines as potent and selective LSD1 inhibitors for the treatment of MLL-rearranged leukemia” (Eur J Med Chem, 2023):
Active and inactive are the calls of the source. No cut-off for these calls is given here.

Columns and labels:
MV4-11 [1] = assay: Induction of apoptosis in human MV4-11 cells assessed as early apoptotic cells at 10 uM incubated for 3 days by Annexin V staining based flow cytometry (reference value: […] %); format: functional; conditions: time 3 day
MV4-11 [2] = assay: Induction of cell differentiation in human MV4-11 cells assessed as CD11b level at 10 uM incubated for 3 days by Annexin V staining based flow cytometry (reference value: 8.58 %); format: functional; conditions: time 3 day
[3] = Toxicity in NOD-SCID mouse xenografted with human MV4-11 cells assessed as animal survival at 50 to 78.7 mg/kg, sc measured after 33 days; format: organism-based; conditions: in vivo, 792 h, dose 50-78.7 mg/kg, time 33 day
MOLM-13 [4] = assay: Induction of cell differentiation in human MOLM-13 cells assessed as CD11b level at 10 uM incubated for 3 days by Annexin V staining based flow cytometry (reference value: 13.77 %); format: functional; conditions: time 3 day
MV4-11 [5] = assay: Induction of apoptosis in human MV4-11 cells assessed as viable cells at 30 uM incubated for 3 days by Annexin V staining based flow cytometry (reference value: 89.63 %); format: functional; conditions: MV4-11, 72 h, time 3 day, read-out: Activity
MV4-11 [6] = assay: Induction of apoptosis in human MV4-11 cells assessed as late apoptotic cells at 10 uM incubated for 3 days by Annexin V staining based flow cytometry (reference value: 7.29 %); format: functional; conditions: time 3 day
MV4-11 [7] = assay: Induction of cell differentiation in human MV4-11 cells assessed as CD11b level at 100 uM incubated for 3 days by Annexin V staining based flow cytometry (reference value: 8.58 %); format: functional; conditions: time 3 day
MV4-11 [8] = assay: Antitumor activity against human MV4-11 cells xenografted in NOD-SCID mouse assessed as decrease in leukemic cells in spleen at 50 mg/kg, sc measured after 33 days relative to control; format: functional; design: scale not given: the % may be the effect or the level left; conditions: time 33 day
MOLM-13 [9] = assay: Induction of apoptosis in human MOLM-13 cells assessed as necrotic cells at 100 uM incubated for 3 days by Annexin V staining based flow cytometry (reference value: 1.23 %); format: functional; conditions: time 3 day
MV4-11 [10] = assay: Antitumor activity against human MV4-11 cells xenografted in NOD-SCID mouse assessed as decrease in leukemic cells in blood at 50 mg/kg, sc measured after 33 days relative to control; format: functional; design: scale not given: the % may be the effect or the level left; conditions: time 33 day
MOLM-13 [11] = assay: Induction of apoptosis in human MOLM-13 cells assessed as necrotic cells at 30 uM incubated for 3 days by Annexin V staining based flow cytometry (reference value: 1.23 %); format: functional; conditions: time 3 day
MOLM-13 [12] = assay: Anti-cancer activity against human MOLM-13 cells assessed as reduction in HoxA9 mRNA level upto 100 uM by qRT-PCR analysis relative to control; format: functional; design: scale not given: the % may be the effect or the level left; conditions: up to 100 µM
[13] = Toxicity in NOD-SCID mouse xenografted with human MV4-11 cells assessed as hunch-back posture at 50 to 78.7 mg/kg, sc measured after 33 days; format: organism-based; conditions: in vivo, 792 h, dose 50-78.7 mg/kg, time 33 day
MV4-11 [14] = assay: Induction of apoptosis in human MV4-11 cells assessed as viable cells at 100 uM incubated for 3 days by Annexin V staining based flow cytometry (reference value: 89.63 %); format: functional; conditions: MV4-11, 72 h, time 3 day, read-out: Activity
[15] = target: T1, MAO-B (amine oxidase [flavin-containing] B) (Homo sapiens, UniProt P27338); assay: Inhibition of N-terminal FLAG-tagged recombinant human MAO-B expressed in baculovirus infected Sf9 cells upto 10 uM preincubated for 15 mins followed by addition of luciferin derivative substrate measured after 1 hr by Luciferase Glo assay relative to control; conditions: probe luciferin derivative substrate, time 75 min
T1 sequence (P27338 whole entry): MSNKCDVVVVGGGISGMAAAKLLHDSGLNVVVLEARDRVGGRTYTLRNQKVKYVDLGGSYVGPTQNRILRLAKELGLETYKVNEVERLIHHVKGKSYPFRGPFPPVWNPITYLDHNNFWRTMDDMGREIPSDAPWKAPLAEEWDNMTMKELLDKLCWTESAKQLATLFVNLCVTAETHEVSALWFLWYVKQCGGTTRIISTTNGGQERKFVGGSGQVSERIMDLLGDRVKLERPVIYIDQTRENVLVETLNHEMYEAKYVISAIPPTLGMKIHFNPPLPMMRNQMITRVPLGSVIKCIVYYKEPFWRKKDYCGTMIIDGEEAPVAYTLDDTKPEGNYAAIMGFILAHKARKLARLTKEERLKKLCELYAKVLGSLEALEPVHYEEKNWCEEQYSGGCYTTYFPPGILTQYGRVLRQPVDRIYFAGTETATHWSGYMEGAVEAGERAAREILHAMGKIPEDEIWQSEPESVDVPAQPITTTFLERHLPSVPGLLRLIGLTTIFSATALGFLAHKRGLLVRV

MOLM-13 [16] = assay: Induction of apoptosis in human MOLM-13 cells assessed as viable cells at 10 uM incubated for 3 days by Annexin V staining based flow cytometry (reference value: 90.54 %); format: functional; conditions: MOLM-13, 72 h, time 3 day, read-out: Activity
MOLM-13 [17] = assay: Induction of cell differentiation in human MOLM-13 cells assessed as CD11b level at 30 uM incubated for 3 days by Annexin V staining based flow cytometry (reference value: 13.77 %); format: functional; conditions: time 3 day
MOLM-13 [18] = assay: Induction of apoptosis in human MOLM-13 cells assessed as late apoptotic cells at 10 uM incubated for 3 days by Annexin V staining based flow cytometry (reference value: 3.29 %); format: functional; conditions: time 3 day
MOLM-13 [19] = assay: Induction of apoptosis in human MOLM-13 cells assessed as viable cells at 100 uM incubated for 3 days by Annexin V staining based flow cytometry (reference value: 90.54 %); format: functional; conditions: MOLM-13, 72 h, time 3 day, read-out: Activity
MV4-11 [20] = assay: Induction of cell differentiation in human MV4-11 cells assessed as increase in CD14 level upto 100 uM incubated for 3 days by Annexin V staining based flow cytometry; format: functional; conditions: time 3.0 day
MOLM-13 [21] = assay: Induction of cell differentiation in human MOLM-13 cells assessed as increase in CD11b level upto 400 uM incubated for 7 days […]; format: functional, cell-based; conditions: time 7.0 day
MV4-11 [22] = assay: Induction of apoptosis in human MV4-11 cells assessed as increase in p53 level upto 100 uM incubated for 3 days by Western blot analysis; format: functional, cell-based; conditions: time 3.0 day
MOLM-13 [23] = assay: Induction of apoptosis in human MOLM-13 cells assessed as viable cells at 30 uM incubated for 3 days by Annexin V staining based flow cytometry (reference value: 90.54 %); format: functional; conditions: MOLM-13, 72 h, time 3 day, read-out: Activity
[24] = Toxicity in NOD-SCID mouse xenografted with human MV4-11 cells assessed as body weight reduction at 50 to 78.7 mg/kg, sc measured after 33 days; format: organism-based; design: scale not given: the % may be the effect or the level left; conditions: in vivo, 792 h, dose 50-78.7 mg/kg, time 33 day
MV4-11 [25] = assay: Antitumor activity against human MV4-11 cells xenografted in NOD-SCID mouse assessed as increase in hemoglobin level at 50 to 78.7 mg/kg, sc measured after 33 days; format: functional, organism-based; conditions: dose 50-78.7 mg/kg, time 33.0 day
MV4-11 [26] = assay: Induction of apoptosis in human MV4-11 cells assessed as early apoptotic cells at 100 uM incubated for 3 days by Annexin V staining based flow cytometry (reference value: […] %); format: functional; conditions: time 3 day
MV4-11 [27] = assay: Anti-invasive activity against human MV4-11 cells xenografted in NOD-SCID mouse assessed as reduction in tumor formation in ovarian tissue at 50 mg/kg, sc measured after 33 days; format: functional, organism-based; conditions: time 33.0 day
MV4-11 [28] = assay: Induction of cell differentiation in human MV4-11 cells assessed as CD11b level at 30 uM incubated for 3 days by Annexin V staining based flow cytometry (reference value: 8.58 %); format: functional; conditions: time 3 day

For `O=C(O)C(F)(F)F.O=[N+]([O-])c1ccc(C2NCCc3cc(O)c(O)cc32)cc1` (stereo not drawn), the Activity (MV4-11 [1]) was 7.06%, the Activity (MV4-11 [2]) was 14.39% and the Activity [3] was “Non-Toxic”. It also gave an Activity (MOLM-13 [4]) of 29.35%, a viability at 30 µM (MV4-11 [5]) of 57.8% and an Activity (MV4-11 [6]) of 22.73%. It also gave an Activity (MV4-11 [7]) of 69.19%, an Activity (MV4-11 [8]) of 32% and an Activity (MOLM-13 [9]) of 16.41%. It also gave an Activity (MV4-11 [10]) of 35%, an Activity (MOLM-13 [11]) of 14.95% and an Activity (MOLM-13 [12]) of roughly 70%. The Activity [13] was “Toxic”, the viability at 100 µM (MV4-11 [14]) was 49.9% and the inhibition at 1 h, up to 10 µM [15] was less than 30%. The viability at 10 µM (MOLM-13 [16]) was 76.6%, the Activity (MOLM-13 [17]) was 90.6% and the Activity (MOLM-13 [18]) was 9.88%. For the same compound, the viability at 100 µM (MOLM-13 [19]) was 56%, the Activity (MV4-11 [20]) was “Active” and the Activity (MOLM-13 [21]) was “Active”. The Activity (MV4-11 [22]) was “Active”, the viability at 30 µM (MOLM-13 [23]) was 61.5% and the Activity [24] was greater than 20%. The Activity (MV4-11 [25]) was “Active”, the Activity (MV4-11 [26]) was 9.09% and the Activity (MV4-11 [27]) was “inactive”. It also gave an Activity (MV4-11 [28]) of 34.78%.
